According to patent publication US20220041641A1, “QUATERNARY AMMONIUM SALTS AS INHIBITORS OF TRIMETHYLAMINE PRODUCTION” (Senda Biosciences, Inc., priority 2018, published 2022):

Experiments:
[1] = assay type: in vitro ADME; details: 1 µM
Description: This assay was used to assess the stability of a conjugate in a large intestine.
All experiments were performed in an anaerobic chamber containing 90% nitrogen, 5% hydrogen and 5% carbon dioxide. Colonic material was resuspended as a slurry (15% w/v final concentration) in pre-reduced, anaerobically sterilized dilution blanks (Anaerobe Systems AS-908). The colonic material was then inoculated into 96 well plates containing YCFAC media (Anaerobe Systems AS-680, 6.7 μL slurry into 1 mL total media). A compound was added to each individual well to reach a final analyte concentration of 1 μM, and the material was mixed by pipetting. Each sample was removed after set timepoints (0, 120, 240, 480, 1440, 2880 minutes after initiation of the assay), quenched with acetonitrile containing internal standard, and analyzed by LCMS.

[2] = Caco-2 permeability assay; assay type: in vitro ADME; details: human, Caco-2, pH 7.4

With `CC(=O)OC[C@H]1O[C@@H](OCC[N+](C)(C)C2CC2)[C@H](OC(C)=O)[C@@H](OC(C)=O)[C@@H]1OC(C)=O.[I-]` [Compound 80, N,N-dimethyl-N-(2-{[(3R,4S,5R,6R)-3,4,5-tris(acetyloxy)-6-[(acetyloxy)methyl]oxan-2-yl]oxy}ethyl)cyclopropanaminium Iodide] the “Assay 3- Colonic Material Stability Assay % Remaining at 24 hr” value [1] was 25%, the Papp A→B at 2 h, 1 µM [2] was 0.28 ×10⁻⁶ cm/s and the Papp B→A at 2 h, 1 µM [2] was 0.313 ×10⁻⁶ cm/s.
